Assay results taken from ChEMBL document CHEMBL1146539, “Homopseudopteroxazole, a new antimycobacterial diterpene alkaloid from Pseudopterogorgia elisabethae” (2003).
Converted amounts (≈) assume the structure as drawn.

System: Mycobacterium tuberculosis
Test: Antimycobacterial activity against Mycobacterium tuberculosis H37Rv
Format: functional
Conditions: for MIC: Mycobacterium tuberculosis, H37Rv

Row | SMILES | inhibition (INH) [%] | MIC [µg/mL]
1 | CC(C)=C[C@@H]1C[C@H](C)[C@H]2CC[C@H](C)c3c2c1c(C)c1ncoc31 [PSEUDOPTEROXAZOLE] | 97 | 12.5 (≈ 40.4 µM)
2 | CC(C)=CCC[C@H](C)[C@H]1CC[C@H](C)c2c1cc(C)c1ncoc21 | 66 | 12.5 (≈ 40.1 µM)
3 | CCCCCc1nc2c(C)c3c4c(c2o1)[C@@H](C)CC[C@@H]4[C@@H](C)C[C@H]3C=C(C)C [HOMOPSEUDOPTEROXAZOLE] | 80 | 12.5 (≈ 32.9 µM)
